Key:
[1] = Foaming properties of aqueous solutions, procedure based upon ASTM D 1173-53; assay type: physicochemical; details: for Initial Foam: foam height at completion of addition
Procedure: The foaming properties of aqueous solutions of N-2-ethylhexyl tartarimide (Ex 1), N-decyl tartarimide (Ex 2), N-2-ethylhexyl malimide (Ex 4) and two representative nonionic surfactants, a commercial nonylphenol 15 mole ethoxylate surfactant and a commercial C8 alkyl glucoside surfactant, were examined using a procedure based upon ASTM D 1173-53.
In this test, a 0.1 wt % aqueous mixtures of the tartramides and malimide were prepared, any undissolved solids were filtered off, and the filtrate was added from an elevated glass pipette to a glass receiver containing the same filtrate. Regarding the commercial materials, a 0.1 wt % solution of the surfactant was added from an elevated glass pipette to a glass receiver containing the same solution. The foam height was measured at the completion of the addition (“Initial Foam Height”) and the time required for the foam to dissipate at the air-liquid interface (“Time to 0 Foam”) was recorded. This test provides a comparison between the foaming characteristics of various surfactants. In general, in coatings, inks, adhesives and agricultural formulations, foam is undesirable because it complicates handling and can lead to coating and print defects, and to inefficient application of agricultural materials.

[2] = Equilibrium surface tension of aqueous solutions, Wilhelmy plate method; assay type: physicochemical; details: for lowering the equilibrium surface tension of water (in words): aqueous solutions, Table 1 data; for Limiting EST: saturated solutions containing <0.1 wt % in distilled water, filtered, Wilhelmy plate
Procedure: where R^1 is a C5 to C10 alkyl group. […] The Wilhelmy plate method of measuring surface tension is described in L. Wilhelmy's article in Ann. Phys. 1863, 119, 177, which is incorporated by reference.
Saturated solutions containing <0.1 wt % of the materials of Examples 1-4 in distilled water were prepared. After shaking the solutions for ˜24 hours, the undissolved material was removed via filtration. Equilibrium surface tension data were obtained using the Wilhelmy plate method.
The limiting surface tensions represent the lowest surface tensions in water which can be achieved for a given surfactant regardless of the amount of surfactant used and is used to evaluate the effectiveness of a surfactant. Lower surface tensions would allow the elimination of defects upon application of a formulation onto low energy surfaces.

[3] = 0.1 wt % aqueous mixture (filtrate) or solution

Foam after 5 min [1, 3]	Initial Foam [1, 3]	Time to zero foam ([1]; 0.1 wt % aqueous mixture (filtrate), values printed in sec)	lowering the equilibrium surface tension of water (in words) [2]	Limiting EST [2]	Time to zero foam ([1]; 0.1 wt % aqueous mixture (filtrate) or solution, values given in min)	Compound
0 cm	0 cm	0 s	particularly effective	34.2 dyne/cm	–	CCCCC(CC)CN1C(=O)C(O)C(O)C1=O (centres unmarked) [Example 1, N-2-Ethylhexyl tartarimide]
–	–	–	–	51.8 dyne/cm	–	CCCCCCN1C(=O)C(O)C(O)C1=O (racemic) [Example 3, N-hexyl DL-tartarimide]
0 cm	3.2 cm	–	particularly effective	32.0 dyne/cm	228 s	CCCCCCCCCCN1C(=O)C(O)C(O)C1=O (racemic) [Example 2, N-Decyl DL-tartarimide]

— US20030229164A1, “Low foam N-alkyltartarimide and N-alkylmalimide wetting agents” (priority 2002, published 2003)
